Test results taken from US20180172683A1, “METHODS FOR ANALYZING THE INTERACTION BETWEEN A TARGET PROTEIN AND A LIGAND” (UNIVERSITY OF SOUTHERN CALIFORNIA, priority 2015, published 2018).
Where two headings read alike, the source gives them in different places. Peptide text beside a SMILES is read from it. * marks the point of attachment. Biotin = O=C1N[C@H]2[C@H](CS[C@H]2CCCCC(=O)*)N1

Tests used:
Bcl-xL [1] = target: T1, Bcl-xL (Homo sapiens, UniProt Q07817); assay: Equilibrium immunoassays (ELISA and AMMP data combined), Kd of ligands for Bcl-xL; assay type: binding; details: for Kd: Kd Determined Using Known [L]0, Monovalent equilibrium model, ELISA and AMMP data; for Kd / Ratio of Fit [L]0 to Known [L]0: mean ± standard error; for Ratio of Fit [L]0 to Known [L]0: simultaneous fit of Kd and [L]0
T1 construct: The gene for the first 209 amino acids of Bcl-xL; made in house; host or cells: E. coli BL21(DE3), pET24a vector
Protocol: Sample Preparation. A set of serially diluted Bcl-xL standards, at 2× the desired concentration, were made in sample buffer. For each ligand to be tested (such as peptide ligands), a set of dilutions at 2× the desired concentration was also prepared. The Bcl-xL samples were either mixed 1:1 with sample buffer (standards) or ligands (samples), and allowed to incubate at room temperature for 6 days. After the incubation, the standards and samples were analyzed using ELISA or the ViBE BioAnalyzer (FIG. 1).
ELISA Assays. ELISA plates were incubated overnight at 4° C. with 1.5 nmol of streptavidin (for D1 or Bcl-xL capture ligands) or 54H6 mAb in 1×PBS. Plates were washed 3× with wash buffer (1×PBS+0.1% (v/v) Tween-20) and blocked with 1×PBS+5% (w/v) BSA for two hours. For the D1 or Bcl-xL capture ligands, 100 μL of a 30 nM solution of the reagents was added to wells and incubated for 1 hour. This step was skipped for the 54H6 mAb capture ligand (already immobilized on the plate). After the capture ligand incubation, 100 μL of sample or standards were added in each well, and incubated for 1 hour at room temperature. Plates were washed, incubated with HRP-conjugated probe antibody (such as anti-HIS tag antibody) in sample buffer for 1 hour, washed, and incubated with TMB substrate (Thermo Scientific). Reactions were stopped after approximately 10 minutes with 2 M sulfuric acid, and the absorbance at 450 nm was measured via a plate reader (Molecular Devices). The ligand of interest, capture ligand, target protein, and probe ligand used in example ELISA assays performed are highlighted in the table below.
AMMP Assays. For the AMMP assays, 90 μL of each sample or standards was incubated with 30 μL of magnetic beads (12 μg of beads/mL) and fluorescein-labeled antibody (8 nM) in sample buffer for 1 hour. The experiment's run buffer was 1×PBS+1% (v/v) Tween-20+1% (v/v) heat-treated FBS (Invitrogen; FBS was heat treated for 15 minutes at 65° C. and filtered). BioScale Universal Detection Cartridges were used in performing all of the assays. The device was used per the manufacturer's instructions. The ligand of interest, capture ligand, target protein, and probe ligand used in example AMMP assays performed are highlighted in the table below.
Monovalent and Divalent Analysis. The data for both sets of target concentrations were simultaneously fit for Kd (in the Kd only fit) or Kd and Mo. The data was fitted to the equilibrium model using the lowest absolute deviation method, by varying either only Kd or both Kd and [L]0 simultaneously. The monovalent assay fitting was done by Excel Solver (GRG Non-Lin method) using a set of five initial values. The set of values which provided the lowest error after the fitting were chosen as the final values. For the divalent assays, the fitting was performed by MATLAB's fminsearch function and a set of 10 initial values for Kd1, Kd2, and [L]0. […] For the divalent reverse assay, an extra parameter, Cf, was also determined by fitting (FIG. 7 Reverse Assay).
Enzymatic Kd Calculation Assay. The Kd values of ligands of interest were determined using a protocol modified from Friguet et al., Journal of immunological methods, 77, 305-319 (1985). The samples were prepared and analyzed by ELISA assay in a similar process as described above. The OD450 for the standards and their concentration values were fit to a four parameter logistic curve (standard curve). The concentration of the free Bcl-xL in solution (responsible for the signal) for each sample was calculated using the standard curve, and converted into percent of Bcl-xL bound by ligand in solution.

Bcl-xL [2] = target: T1, Bcl-xL; assay: Radiolabeled off-rate assay on immobilized Bcl-xL; assay type: binding
Text: Radiolabeled Off-Rate Assay. The DNA sequences coding for the peptides were ordered from Integrated DNA Technologies (IDT). Each DNA construct contained a T7 RNA Polymerase promoter, and a 5′ deletion mutant of the Tobacco Mosaic Virus (ΔTMV). The C-terminal portion of the peptides were elongated with a flexible serine-glycine linker (six amino acids long) and an HA tag. After gel purification using urea-PAGE, the DNA sequences were PCR amplified using Taq polymerase and in vitro transcribed into mRNA using T7 RNA polymerase. After transcription, the mRNA was urea-PAGE purified and resuspended in deionized water to a final concentration of 30 μM.
The samples were in vitro translated at 30° C. for 1 hour in the translation solution—150 mM KOAc, 750 μM MgCl2, 2 μM mRNA, 1× translation mix (20 mM Hepes-KOH pH 7.6, 100 mM creatine phosphate, 2 mM DTT, and 312.5 μM of each amino acid excluding methionine), ^35S-labeled methionine (Perkin Elmer; 20 μCi for each 25 μL of translation), and 60% (v/v) rabbit reticulocyte lysate. Radiolabeled peptides were purified using magnetic HA beads (Life Technologies) and eluted with 100 μL, 50 mM NaOH, then immediately neutralized with 20 μL of 1 M Tris-HCl, pH 8.0.
The radiolabeled peptides were allowed to bind to 30 pmol immobilized Bcl-xL for 1 hour in sample buffer (1×PBS, 1% (w/v) BSA, 0.1% (v/v) Tween 20, 10 μM biotin). The beads were magnetically separated, and washed 5× with sample buffer. The beads were resuspended in 1 mL of sample buffer containing 3 μM non-biotinylated Bcl-xL (˜100× molar excess relative to immobilized biotinylated Bcl-xL). At various time points, 100 μL of slurry was removed and the beads were magnetically separated and washed. The percent remaining at each time point was determined by dividing the counts per minute (cpm) on beads by total cpm (beads+washes). The peptide off-rate was determined by an exponential fit of the Percent counts on beads vs. Time (s).
The peptide ligands were made using a C-terminal HA tag, and affinity purified.

[3] = in vitro translated radiolabeled peptides with C-terminal HA tag, read-out: Peptide koff
[4] = radiolabeled peptide-mRNA fusions bound to immobilized Bcl-xL, read-out: koff

T1 sequence (Q07817 1-209 limits assumed): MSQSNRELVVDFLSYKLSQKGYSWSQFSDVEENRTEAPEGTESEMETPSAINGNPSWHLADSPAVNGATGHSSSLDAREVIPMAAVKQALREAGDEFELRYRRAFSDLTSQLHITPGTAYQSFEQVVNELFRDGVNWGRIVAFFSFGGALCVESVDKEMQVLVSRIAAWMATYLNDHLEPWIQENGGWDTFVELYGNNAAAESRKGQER

Structure (SMILES)	kon (Bcl-xL [1])	Kd (Bcl-xL [1])	Ratio of Fit [L]0 to Known [L]0 (Bcl-xL [1])	koff (Bcl-xL [2]; [3])	koff (Bcl-xL [2]; [4])
CC[C@H](C)[C@H](NC(=O)[C@H](C)NC(=O)[C@@H](NC(=O)[C@@H](N)CCSC)[C@@H](C)CC)C(=O)N[C@@H](CO)C(=O)N[C@H](C(=O)N[C@H](C(=O)N[C@@H](Cc1ccc(O)cc1)C(=O)N[C@@H](CC(N)=O)C(=O)N[C@@H](Cc1ccc(O)cc1)C(=O)N[C@@H](CCCCN)C(=O)N[C@@H](CCCCN)C(=O)N[C@@H](C)C(=O)N[C@@H](C)C(=O)N[C@@H](CC(=O)O)C(=O)N[C@@H](Cc1c[nH]cn1)C(=O)N[C@@H](Cc1ccc(O)cc1)C(=O)N[C@@H](C)C(=O)N[C@@H](CCSC)C(=O)N[C@H](C(=O)N[C@@H](CCCCN)C(=O)NCC(=O)N[C@@H](CO)C(=O)N[C@@H](CCCCNC(=O)CCCC[C@@H]1SC[C@@H]2NC(=O)N[C@@H]21)C(N)=O)[C@@H](C)O)[C@@H](C)CC)[C@@H](C)O [D1] (H-MIAISTIYNYKKAADHYAMTKGSK(Biotin)-NH2)	240000 M⁻¹ s⁻¹	0.0085 ± 0.002 nM	109% ± 7%	2e-06 s⁻¹	2e-06 s⁻¹
CC[C@H](C)[C@H](NC(=O)[C@@H](NC(=O)[C@@H](NC(=O)[C@@H](NC(=O)[C@H](CCC(=O)O)NC(=O)[C@@H](NC(=O)[C@@H](N)CCSC)[C@@H](C)CC)[C@@H](C)O)[C@@H](C)CC)[C@@H](C)O)C(=O)N[C@@H](Cc1ccc(O)cc1)C(=O)N[C@@H](CC(N)=O)C(=O)N[C@@H](Cc1ccc(O)cc1)C(=O)N[C@@H](CCCCN)C(=O)N[C@@H](CCCCN)C(=O)N[C@@H](C)C(=O)N[C@@H](C)C(=O)N[C@@H](CC(=O)O)C(=O)N[C@@H](Cc1c[nH]cn1)C(=O)N[C@@H](Cc1ccccc1)C(=O)N[C@@H](CO)C(=O)N[C@@H](CCSC)C(=O)N[C@@H](CO)C(=O)N[C@@H](CCSC)C(=O)NCC(=O)N[C@@H](CO)C(=O)N[C@@H](CCCCNC(=O)CCCC[C@@H]1SC[C@@H]2NC(=O)N[C@@H]21)C(N)=O [E1] (H-MIETITIYNYKKAADHFSMSMGSK(Biotin)-NH2)	310000 M⁻¹ s⁻¹	0.039 ± 0.006 nM	88% ± 10%	7.4e-06 s⁻¹	1.2e-05 s⁻¹
